The test system of experiment [1] is B16F10 mouse melanoma cells. As to the kind of experiment: B16F10 IFNγ-induced cellular growth inhibition assay. In kind it is cell-based. The conditions noted are these: Mus musculus, B16-F10, 33 μM compound. The procedure, abridged:
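Live-cell imaging of confluence every 6 h over 5 days at 37 °C tracked growth of mouse B16F10 melanoma cells seeded overnight at 500/well. Semi-log compound series (final 100–0.001 μM, 0.1% DMSO) ran in both arms, ±IFNγ at 0.5 ng/mL final; inhibition taken relative to DMSO plus IFNγ when IFNγ-free DMSO wells passed 95% confluence.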

Experiment [2] addresses T1, His tagged PTPN2 (TC45) protein (Homo sapiens, UniProt P17706).
T1 construct: made in house
T1 sequence (P17706 with tags, fused parts or gaps isoform P17706-2): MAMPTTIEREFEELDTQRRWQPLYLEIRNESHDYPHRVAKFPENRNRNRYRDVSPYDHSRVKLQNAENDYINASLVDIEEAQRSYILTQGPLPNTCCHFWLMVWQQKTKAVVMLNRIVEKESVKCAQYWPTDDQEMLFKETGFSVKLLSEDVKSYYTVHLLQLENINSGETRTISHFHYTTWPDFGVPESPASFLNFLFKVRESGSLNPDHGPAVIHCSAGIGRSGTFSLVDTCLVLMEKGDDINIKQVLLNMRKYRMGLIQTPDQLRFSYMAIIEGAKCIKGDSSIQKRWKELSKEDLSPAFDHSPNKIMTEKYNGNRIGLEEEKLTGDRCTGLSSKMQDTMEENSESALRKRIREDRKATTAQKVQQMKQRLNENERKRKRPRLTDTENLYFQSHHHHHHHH
The experiment is described as follows: Mobility shift assay (MSA) for potency of PTPN2 inhibitors. The conditions noted are these: read-out: PTPN2 MSA IC50. Format: biochemical. The essentials: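 IC50 values were derived from % inhibition of substrate conversion, measured by microfluidic mobility shift (ex 488/em 530) after quenching. The fluorescent phosphotyrosine insulin-receptor peptide ([…]) reacted for 10 min at room temperature with 0.5 nM His-tagged TC45 PTPN2 that had been preincubated 10 min with compound (12 points, 1:3). Buffer was HEPES pH 7.5 with EGTA, EDTA, Tween 20 and DTT.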

The mark [3] stands for this setting: +0.5 ng/mL IFNγ, relative to DMSO control, read-out: % B16F10 growth inhibition (+0.5 ng/mL IFNγ) @ 33 μM.
Where [4] appears, read: no IFNγ, read-out: % B16F10 growth inhibition (no IFNγ) @ 33 μM.

Where two headings read alike, the source gives them in different places. Where only a bound is given, the exact number is not on record here.

For 23 compounds, inhibition and IC50 results are on record in patent US20210009542A1 (Calico Life Sciences LLC, priority 2018, published 2021).

Broadly, the IC50 is the concentration that gives 50% inhibition. Regarding `O=C1CN(c2c(O)cc3ccc(OCCF)cc3c2F)S(=O)(=O)N1` [Compound 198, 5-[1-fluoro-7-(2-fluoroethoxy)-3-hydroxynaphthalen-2-yl]-1λ^6,2,5-thiadiazolidine-1,1,3-trione], the inhibition at 33 µM in experiment [1] (setting [3]) was 60 to 90%; in experiment [1] (setting [4]), less than 25%. For the same compound, the IC50 in experiment [2] was 1 to 10 nM.

Consider `CC(C)CCNc1ccc2cc(O)c(N3CC(=O)NS3(=O)=O)c(F)c2c1` [Compound 200, 5-{1-fluoro-3-hydroxy-7-[(3-methylbutyl)amino]naphthalen-2-yl}-1λ^6,2,5-thiadiazolidine-1,1,3-trione], for which the inhibition at 33 µM in experiment [1] (setting [3]) was more than 90%; in experiment [1] (setting [4]) it was less than 25%. In addition, the IC50 in experiment [2] was in the range of 1 to 10 nM.

On to `CC(C)CNc1ccc2cc(O)c(N3CC(=O)NS3(=O)=O)c(F)c2c1` [Compound 201, 5-{1-fluoro-3-hydroxy-7-[(2-methylpropyl)amino]naphthalen-2-yl}-1λ^6,2,5-thiadiazolidine-1,1,3-trione], for which the inhibition at 33 µM in experiment [1] (setting [3]) is 60 to 90%; in experiment [1] (setting [4]), less than 25%. In experiment [2], the IC50 fell in the range of 1 to 10 nM.

Regarding `N#CCOc1ccc2cc(O)c(N3CC(=O)NS3(=O)=O)c(F)c2c1` [Compound 203, {[8-fluoro-6-hydroxy-7-(1,1,4-trioxo-1λ^6,2,5-thiadiazolidin-2-yl)naphthalen-2-yl]oxy}acetonitrile], the inhibition at 33 µM in experiment [1] (setting [3]) was 60 to 90%; in experiment [1] (setting [4]) it was less than 25%. Besides, the half-maximal inhibitory concentration (IC50) in experiment [2] was 1 to 10 nM.

Regarding `CC(C)CCOc1ccc2cc(O)c(N3CC(=O)NS3(=O)=O)c(F)c2c1` [Compound 204, 5-[1-fluoro-3-hydroxy-7-(3-methylbutoxy)naphthalen-2-yl]-1λ^6,2,5-thiadiazolidine-1,1,3-trione], the inhibition at 33 µM is 60 to 90% in experiment [1] (setting [3]) and less than 25% in experiment [1] (setting [4]). For the same compound, the IC50 in experiment [2] is less than 1 nM.

For `COc1ccc2cc(O)c(N3CC(=O)NS3(=O)=O)c(F)c2c1F` [Compound 205, 5-(1,8-difluoro-3-hydroxy-7-methoxynaphthalen-2-yl)-1λ^6,2,5-thiadiazolidine-1,1,3-trione], the inhibition at 33 µM is 25 to 59% in experiment [1] (setting [3]) and less than 25% in experiment [1] (setting [4]). For the same compound, the IC50 in experiment [2] lay within 10 to 100 nM.

As to `O=C1CN(c2c(O)cc3ccc(C4CN(S(=O)(=O)C5CC5)C4)cc3c2F)S(=O)(=O)N1` [Compound 206, 5-{7-[1-(cyclopropanesulfonyl)azetidin-3-yl]-1-fluoro-3-hydroxynaphthalen-2-yl}-1λ^6,2,5-thiadiazolidine-1,1,3-trione], the figures for the inhibition at 33 µM in experiment [1] (setting [3]) and in experiment [1] (setting [4]) were 60 to 90% and less than 25%, respectively. Also, in experiment [2], the IC50 was 1 to 10 nM.

Turning to `O=C1CN(c2c(O)cc3ccc(C4CN(C(=O)C5CC5)C4)cc3c2F)S(=O)(=O)N1` [Compound 207, 5-{7-[1-(cyclopropanecarbonyl)azetidin-3-yl]-1-fluoro-3-hydroxynaphthalen-2-yl}-1λ^6,2,5-thiadiazolidine-1,1,3-trione], the inhibition at 33 µM in experiment [1] (setting [3]) is 25 to 59%; in experiment [1] (setting [4]), less than 25%. For the same compound, the IC50 in experiment [2] was 1 to 10 nM.

For `N#C/C=C/c1ccc2cc(O)c(N3CC(=O)NS3(=O)=O)c(F)c2c1` [Compound 208, (2E)-3-[8-fluoro-6-hydroxy-7-(1,1,4-trioxo-1λ^6,2,5-thiadiazolidin-2-yl)naphthalen-2-yl]prop-2-enenitrile], the inhibition at 33 µM in experiment [1] (setting [3]) and in experiment [1] (setting [4]) was less than 25% in each case. Also, in experiment [2], the IC50 was in the range of 1 to 10 nM.

`O=C1CN(c2c(O)cc3ccc(CCC4CC4)cc3c2F)S(=O)(=O)N1` [Compound 209, 5-[7-(2-cyclopropylethyl)-1-fluoro-3-hydroxynaphthalen-2-yl]-1λ^6,2,5-thiadiazolidine-1,1,3-trione]: the inhibition at 33 µM was 60 to 90% in experiment [1] (setting [3]) and less than 25% in experiment [1] (setting [4]). In addition, the IC50 in experiment [2] lay in the range of 1 to 10 nM.

In the case of `O=C1CN(c2c(O)cc3ccc(OCCC4CC4)cc3c2F)S(=O)(=O)N1` [Compound 211, 5-[7-(2-cyclopropylethoxy)-1-fluoro-3-hydroxynaphthalen-2-yl]-1λ^6,2,5-thiadiazolidine-1,1,3-trione], the inhibition at 33 µM in experiment [1] (setting [3]) was 60 to 90%; in experiment [1] (setting [4]), less than 25%. Moreover, in experiment [2], the IC50 was less than 1 nM.

Turning to `O=C1CN(c2c(O)cc3ccc(OCCOCC4CC4)cc3c2F)S(=O)(=O)N1` [Compound 212, 5-{7-[2-(cyclopropylmethoxy)ethoxy]-1-fluoro-3-hydroxynaphthalen-2-yl}-1λ^6,2,5-thiadiazolidine-1,1,3-trione], the inhibition at 33 µM in experiment [1] (setting [3]) is 60 to 90%; in experiment [1] (setting [4]) it was less than 25%. For the same compound, the concentration for half-maximal inhibition (IC50) in experiment [2] lay within 1 to 10 nM.

In the case of `O=C1CN(c2c(O)cc3ccc(OCCOC4CCC4)cc3c2F)S(=O)(=O)N1` [Compound 214, 5-{7-[2-(cyclobutyloxy)ethoxy]-1-fluoro-3-hydroxynaphthalen-2-yl}-1λ^6,2,5-thiadiazolidine-1,1,3-trione], the inhibition at 33 µM in experiment [1] (setting [3]) is 60 to 90%; in experiment [1] (setting [4]) it was less than 25%. Moreover, the IC50 in experiment [2] fell in the range of 1 to 10 nM.

Consider `CC(C)OCCOc1ccc2cc(O)c(N3CC(=O)NS3(=O)=O)c(F)c2c1` [Compound 215, 5-(1-fluoro-3-hydroxy-7-{2-[(propan-2-yl)oxy]ethoxy}naphthalen-2-yl)-1λ^6,2,5-thiadiazolidine-1,1,3-trione], for which the inhibition at 33 µM in experiment [1] (setting [3]) was 60 to 90%; in experiment [1] (setting [4]), less than 25%. In experiment [2], the IC50 is 1 to 10 nM.

As to `CCOCCCOc1ccc2cc(O)c(N3CC(=O)NS3(=O)=O)c(F)c2c1` [Compound 216, 5-[7-(3-ethoxypropoxy)-1-fluoro-3-hydroxynaphthalen-2-yl]-1λ^6,2,5-thiadiazolidine-1,1,3-trione], the inhibition at 33 µM in experiment [1] (setting [3]) is 25 to 59%; in experiment [1] (setting [4]) it was less than 25%. The IC50 in experiment [2] was 1 to 10 nM.

For the compound `CC(C)(C)OCCOc1ccc2cc(O)c(N3CC(=O)NS3(=O)=O)c(F)c2c1` [Compound 217, 5-[7-(2-tert-butoxyethoxy)-1-fluoro-3-hydroxynaphthalen-2-yl]-1λ^6,2,5-thiadiazolidine-1,1,3-trione], the inhibition at 33 µM in experiment [1] (setting [3]) is 25 to 59%; in experiment [1] (setting [4]), less than 25%. In addition, in experiment [2], the IC50 lay in the range of 1 to 10 nM.

For `O=C1CN(c2c(O)cc3ccc(OC4CC4)cc3c2F)S(=O)(=O)N1` [Compound 223, 5-[7-(cyclopropyloxy)-1-fluoro-3-hydroxynaphthalen-2-yl]-1λ^6,2,5-thiadiazolidine-1,1,3-trione], the inhibition at 33 µM in experiment [1] (setting [3]) is 60 to 90%; in experiment [1] (setting [4]), less than 25%. In addition, in experiment [2], the 50% inhibitory concentration (IC50) lay in the range of 1 to 10 nM.

For `O=C1CN(c2c(O)cc3ccc(NCCC4CC4)cc3c2F)S(=O)(=O)N1` [Compound 224, 5-{7-[(2-cyclopropylethyl)amino]-1-fluoro-3-hydroxynaphthalen-2-yl}-1λ^6,2,5-thiadiazolidine-1,1,3-trione], the inhibition at 33 µM was more than 90% in experiment [1] (setting [3]) and less than 25% in experiment [1] (setting [4]). In experiment [2], the IC50 fell in the range of 1 to 10 nM.

Turning to `O=C1CN(c2c(O)cc3ccc(C4CNC4)cc3c2F)S(=O)(=O)N1` [Compound 226, 5-[7-(azetidin-3-yl)-1-fluoro-3-hydroxynaphthalen-2-yl]-1λ^6,2,5-thiadiazolidine-1,1,3-trione], the inhibition at 33 µM in experiment [1] (setting [3]) is 60 to 90%; in experiment [1] (setting [4]), less than 25%. Further, the IC50 in experiment [2] is 1 to 10 nM.

For `COc1ccc(-c2ccc3cc(O)c(N4CC(=O)NS4(=O)=O)c(F)c3c2)s1` [Compound 227, 5-[1-fluoro-3-hydroxy-7-(5-methoxythiophen-2-yl)naphthalen-2-yl]-1λ^6,2,5-thiadiazolidine-1,1,3-trione], the figures for the inhibition at 33 µM in experiment [1] (setting [3]) and in experiment [1] (setting [4]) were 60 to 90% and less than 25%, respectively. The IC50 in experiment [2] lay in the range of 1 to 10 nM.

As for `O=C1CN(c2c(O)cc3ccc(OCC4CC(F)(F)C4)cc3c2F)S(=O)(=O)N1` [Compound 235, 5-{7-[(3,3-difluorocyclobutyl)methoxy]-1-fluoro-3-hydroxynaphthalen-2-yl}-1λ^6,2,5-thiadiazolidine-1,1,3-trione], the inhibition at 33 µM in experiment [1] (setting [3]) was 60 to 90%; in experiment [1] (setting [4]), less than 25%. Moreover, the IC50 in experiment [2] lay within 1 to 10 nM.

For `O=C1CN(c2c(O)cc3ccc(C4=CCN(C(=O)C5CC5)C4)cc3c2F)S(=O)(=O)N1` [Compound 237, 5-{7-[1-(cyclopropanecarbonyl)-2,5-dihydro-1H-pyrrol-3-yl]-1-fluoro-3-hydroxynaphthalen-2-yl}-1λ^6,2,5-thiadiazolidine-1,1,3-trione], the inhibition at 33 µM in experiment [1] (setting [3]) was more than 90%; in experiment [1] (setting [4]), less than 25%. Moreover, the IC50 in experiment [2] was in the range of 1 to 10 nM.

For the compound `COc1ccc2c(Cl)c(O)c(N3CC(=O)NS3(=O)=O)c(F)c2c1` [Compound 238, 5-(4-chloro-1-fluoro-3-hydroxy-7-methoxynaphthalen-2-yl)-1λ^6,2,5-thiadiazolidine-1,1,3-trione], the inhibition at 33 µM in experiment [1] (setting [3]) and in experiment [1] (setting [4]) was less than 25% in each case. In addition, the IC50 in experiment [2] was 10 to 100 nM.
